Measurements: patent publication US8053585B2, “Protecting group for carboxylic acids that can be photolyzed by visible light” (Cornell Research Foundation, Inc., priority 2006, dated 2011)
Values joined by “and” are separate entries in the source; they are usually repeats but may differ in a detail not shown here. Identical values can stand only once. “Also recorded” adds a separate entry of the source.

Key:
Type in all cases: physicochemical
[1] = UV-vis absorption spectrum of the caged compound; conditions: for ε390: 390 nm; for ε400: 400 nm
Protocol: The caged compound (1 mM) was rapidly dissolved in the buffer solution (150 mM NaCl, 1 mM CaCl2, 10 mM HEPES; the pH was adjusted to 7.4 using 5 N NaOH), and the solution was immediately transferred to a cuvette (4 mL volume, 10 mm path length) and placed in an absorption spectrometer (OLIS-14C) at 22° C. Whole spectra were recorded between 1 and 240 min after the compound was dissolved (FIGS. 1 and 7).

[2] = Solubility in water or the buffers used; conditions: physiological conditions
[3] = Hydrolysis in the dark (thermal stability, UV-vis spectra); conditions: for hydrolysis at room temperature: HEK buffer pH 7.4, protected from light, 2 h; for hydrolysis on storage: buffer pH 7.4, −20° C. in the dark; for stability in water: pH 7.4 and 22° C. / physiological conditions, in the dark
[4] = Laser-flash photolysis (transient spectral measurements); conditions: for time to release the amino acid on photolysis: aqueous solution, visible region; for time constant of single-exponential absorbance decay at 460 nm: light pulse ≧400 nm, 0.8 mM, HEK buffer pH 7.4, 22° C.
Protocol: […] The energy of the beam was measured using a Molectron (Portland, Oreg.) joule meter. Light of≧400 nm produced by fluorescence from 4.9×10^−4 M Exalite 404 dye (Exciton Inc., Dayton, Ohio) was used to initiate photolysis. The decay of the transient intermediate absorbance was recorded by digitizing the photomultiplier output at rates up to 2 MHz. The transient absorption changes were monitored at a wavelength where there was significant change in the absorption on irradiation of the caged compound (ca. 460 nm). All photolysis rates and quantum yields were measured at room temperature. Nonlinear least-squares fitting of single exponential decays was used to determine the photolysis rate constants.

[5] = Quantum yield of photolysis; conditions: ≧400 nm, 250 μM, extracellular buffer pH 7.4, 22° C.
Protocol: The quantum yield for the caged compound was determined by actinometric methods (Murov, in Dekker, ed., Handbook of Photochemistry, New York, pp. 298-305 (1993), which is hereby incorporated by reference in its entirety). The Oriel (Oriel Instruments, Stratford, Conn.) lamp used for photolysis was equipped with a filter (Schott glass filter GG400; Schott North America, Inc., Elmsford, N.Y.) to eliminate light at wavelengths below 400 nm.
The quantum yield was also determined using the method published by Milburn et al., “Synthesis, Photochemistry, and Biological Activity of a Caged Photolabile Acetylcholine Receptor Ligand,” Biochemistry 28:49-55 (1989), which is hereby incorporated by reference in its entirety. For measuring the quantum yield of DECM-caged glutamate photolysis, 3 mL sample of 4 (Scheme 1) was photolyzed with repetitive light pulses at≧400 nm, and the concentration of 2 (Scheme 1) was determined spectrophotometrically. For measuring the quantum yield of DECM-caged glycine photolysis, 3 mL sample of 4 (Scheme 2) was photolyzed with repetitive light pulses at≧400 nm, and the concentration of 2 (Scheme 2) was determined spectrophotometrically. […]

SMILES | major absorption band maximum [1] [nm] | ε390 [1] [M⁻¹ cm⁻¹] | ε400 [1] [M⁻¹ cm⁻¹] | solubility in water [2] | hydrolysis at room temperature [3] | hydrolysis on storage ([3]; 20 h) | stability in water [3] | time to release the amino acid on photolysis [4] [μs] | time constant of single-exponential absorbance decay at 460 nm [4] [μs] | quantum yield of photolysis [5] | hydrolysis on storage ([3]; 24 h)
CCN(CC)c1ccc2c(COC(=O)CN)cc(=O)oc2c1 [DECM-caged glycine, (7-N,N-Diethylaminocoumarin-4-yl)-methyl-glycine-trifluoroacetate] | 390 | 13869 | 12427 | water soluble | very little hydrolysis | No measurable hydrolysis | stable | ≤ 2.6 | 2.6 | 0.12±0.009 | –
CCN(CC)c1ccc2c(COC(=O)CCC(N)C(=O)O)cc(=O)oc2c1 (centres unmarked) [DECM-caged glutamate, (7-N,N-Diethylaminocoumarin-4-yl)-methyl-glutamate-trifluoroacetate] | 390 | 13651 | 12232 | sufficiently soluble in water or the buffers used; also recorded: water soluble | very little hydrolysis | – | stable in the dark | ≤ 3 | 3 | 0.11±0.008 and 0.11±0.08 | No measurable hydrolysis
